Measurements published in paper PMC7826463, “Pamiparib dose escalation in Chinese patients with non‐mucinous high‐grade ovarian cancer or advanced triple‐negative breast cancer” (Cancer Medicine, 2020).
Several values for one entry are separate records, joined by “and”; a condition that tells them apart may be missing. Equal values may be shown once.

Tests used:
PARP1/2 = settings: cited from earlier work
advanced HGOC or TNBC = test: Progression-free survival, total safety population; format: in vivo, human; settings: Total (N=15)
Experimental: (§1) Secondary objectives were assessment of PK parameters and antitumor activity. Blood samples for the PK analysis were collected at Cycle 1 on Days 1, 2, and 3. Pharmacokinetic sampling was performed at Cycle 1 on Day 1 (predose and at 0.5, 1, 2, 4, 6, 9, and 12 hours postdose), Day 2, Day 3, and Day 10 (predose and at 0.5, 1, 2, 4, 6, 9, and 12 hours postdose); then at Cycles 2 and 3 on Day 1 (predose and at 2 hours postdose). […] Tumor assessments were performed by the investigators at screening, every 6 weeks after the first dose of pamiparib in the 1st year, and every 12 weeks thereafter until progression, per RECIST v1.1. Patients completed the study at the time of their safety follow‐up visit; therefore, radiological assessment of disease progression was not performed after the safety follow‐up visit. Descriptive statistics were used to summarize all study data. Continuous variables included the number of non‐missing observations, mean, standard deviation, median, minimum, and maximum. Categorical variables were summarized by their frequency and percentage. Progression‐free survival was estimated using the Kaplan–Meier method and the corresponding 95% confidence interval (CI) was constructed using Greenwood's formula. Standard PK parameters (i.e., area under the plasma concentration‐time curve [AUC] from time of drug administration; maximum plasma concentration [Cmax]; time to Cmax; elimination half‐life [t1/2]; apparent clearance; and apparent volume of distribution during terminal phase) were estimated and derived using standard non‐compartmental methods.

[1] = system: patients with advanced solid tumors; settings: cited from earlier work
[2] = system: triple-negative breast cancer (TNBC); test: Antitumor activity per RECIST v1.1 (best overall response, ORR, CBR, PFS) in patients with TNBC; format: in vivo, human
Experimental: as §1, with “visit. Approximately 14 to 18 evaluable patients were expected to enroll in the phase 1 part of the study. The safety population included all patients who received ≥1 dose of pamiparib. The PK population included all patients for whom valid pamiparib PK parameters could be estimated. Antitumor activity per RECIST v1.1 was assessed in all evaluable patients. […] The population evaluable for CA‐125 response included patients in the safety population with baseline CA‐125 ≥2 x upper limit of normal.” for “visit.”

[3] = system: non-mucinous high-grade ovarian cancer (HGOC); test: Antitumor activity per RECIST v1.1 (best overall response, ORR, CBR, PFS) in patients with HGOC; format: in vivo, human
Experimental: as §1, with “visit. Approximately 14 to 18 evaluable patients were expected to enroll in the phase 1 part of the study. The safety population included all patients who received ≥1 dose of pamiparib. The PK population included all patients for whom valid pamiparib PK parameters could be estimated. Antitumor activity per RECIST v1.1 was assessed in all evaluable patients. […] The population evaluable for CA‐125 response included patients in the safety population with baseline CA‐125 ≥2 x upper limit of normal.” for “visit.”

[4] = system: high-grade ovarian cancer (HGOC); test: CA-125 response per Gynecologic Cancer Intergroup in patients with HGOC; format: in vivo, human
Experimental: Among eligible patients with HGOC, carcinoma antigen 125 (CA‐125) response rate per Gynecologic Cancer Intergroup was also assessed. Patients with HGOC had CA‐125 tested in a local laboratory at baseline, every 6 weeks in the 1st year, and then, every 12 weeks thereafter. CA‐125 responses must have been confirmed and maintained for at least 28 days. Germline and tBRCA1/2 mutations were analyzed as predictive biomarkers of antitumor activity and resistance to pamiparib. BRCA mutations were assessed using next‐generation sequencing, performed by BGI Genomics Co., Ltd, using the germline (gBRCA) or somatic (tBRCA) Hereditary Breast and Ovarian Cancer Test. Approximately 14 to 18 evaluable patients were expected to enroll in the phase 1 part of the study. The safety population included all patients who received ≥1 dose of pamiparib. The PK population included all patients for whom valid pamiparib PK parameters could be estimated. Antitumor activity per RECIST v1.1 was assessed in all evaluable patients. […] The population evaluable for CA‐125 response included patients in the safety population with baseline CA‐125 ≥2 x upper limit of normal.

[5] = TNBC (n = 5), RECIST efficacy-evaluable
[6] = TNBC (n = 5), RECIST efficacy-evaluable, 20-60 mg BID
[7] = TNBC (n=6), Kaplan-Meier, NE, not estimable
[8] = HGOC (n = 8), RECIST efficacy-evaluable
[9] = HGOC (n = 8), RECIST efficacy-evaluable, 20-60 mg BID

## C[C@]12CCCN1CC1=NNC(=O)c3cc(F)cc4[nH]c2c1c34 [pamiparib, Pamiparib]
PARP1/2
  Potency relative to olaparib (fold more potent): 10 fold
Advanced HGOC or TNBC; Kaplan-Meier
  Event-free rate at 3 months (95% CI): 50.0 (20.85–73.61) %
  Event-free rate at 6 months (95% CI): 40.0 (13.52–65.73) %
  Event-free rate at 9 months (95% CI): 40.0 (13.52–65.73) %
Advanced HGOC or TNBC; Kaplan-Meier, NE, not estimable
  Median PFS (95% CI): 4.2 (1.48–NE) months
Advanced HGOC or TNBC; safety population
  PFS Events: 7 (46.7) n (%)
  PFS events: Disease progression: 7 (46.7) n (%)
[1]; FIH study NCT02361723, PO
  Recommended phase 2 dose (RP2D): 60 mg BID
[1]; FIH study NCT02361723
  Linearity of pamiparib exposure: linear up to 80 mg BID
  Maximum tolerated dose (MTD): 80 mg BID
[2]; [5]
  Clinical benefit rate (CR+PR+SD ≥24 weeks): 0 % (95% CI)
  Disease control rate (CR+PR+SD): 0 % (95% CI)
  Objective response rate (CR+PR): 0 % (95% CI)
[2]; [6]
  Best overall response: Complete response: 0 n (%)
  Best overall response: Partial response: 0 n (%)
  Best overall response: Stable disease: 0 n (%)
[2]; TNBC (n=6), Kaplan-Meier
  Median PFS (95% CI): 1.5 (1.45–1.61) months
[2]; [7]
  Event-free rate at 3 months (95% CI): 0 (NE–NE) %
  Event-free rate at 6 months (95% CI): 0 (NE–NE) %
  Event-free rate at 9 months (95% CI): 0 (NE–NE) %
[2]; TNBC (n=6), safety population
  PFS Events: 5 (83.3) n (%)
  PFS events: Disease progression: 5 n (%) and 5 (83.3) n (%)
[3]; [8]
  Clinical benefit rate (CR+PR+SD ≥24 weeks): 62.5 % (95% CI) and 62.5 (24.5‐91.5) % (95% CI)
  Disease control rate (CR+PR+SD): 100 % (95% CI) and 100.0 (63.1‐100) % (95% CI)
  Objective response rate (CR+PR): 25.0 (3.2‐65.1) % (95% CI)
[3]; [9]
  Best overall response: Complete response: 0 n (%)
  Best overall response: Progressive disease: 0 n (%)
[3]; HGOC (n=9), Kaplan-Meier
  Event-free rate at 3 months (95% CI): 85.7 (33.41–97.86) %
  Event-free rate at 6 months (95% CI): 68.6 (21.28–91.21) %
  Event-free rate at 9 months (95% CI): 68.6 (21.28–91.21) %
[3]; HGOC (n=9), Kaplan-Meier, NE, not estimable
  Median PFS (95% CI): NE (2.86–NE)
[3]; HGOC (n=9), safety population
  PFS Events: 2 (22.2) n (%)
[3]; RECIST-evaluable HGOC (n = 8)
  Confirmed PR, gBRCA WT patients: 1 n
  Confirmed PR, gBRCA mut patients: 1 n
[3]; one patient with HGOC, 20 mg dose level, PR, treatment ongoing
  Response duration at data cut-off: 27.7 months
[4]; HGOC (n=8), CA-125-evaluable population
  CA-125 response rate: 2 (25.0) n (%)
[4]; HGOC, n 2 responders
  Time to response (per CA-125 criteria), Median (range): 1.45 (1.4–1.5) months
